Measured values reported in publication PMC3228261 (Chemistry (Weinheim an der Bergstrasse, Germany), 2011).
Read-outs that look alike come from different tables or passages of the source.

Experiments:
[1] = tested on: human primary foreskin fibroblast (HFF) cells; conditions: read-out: EC50 (HFF), viable cells after 72 h, triplicates
[2] = tested on: L-929 mouse fibroblasts; test: MTT test, growth inhibition of L-929 mouse fibroblasts; format: cell-based; conditions: read-out: IC50 (L929), 5 d incubation, MTT assay
[3] = tested on: human primary foreskin fibroblast (HFF) cells; test: cells; conditions: 72 h, read-out: EC50 (HFF)
[4] = in vitro; conditions: human

Row | SMILES | EC50 [1] | IC50 [2] | EC50 [3] | EC50 at 72 h [4]
1 | CO[C@@H]1C(=O)O[C@H](C)[C@H](C)/C=C(\C)C[C@H](C)C(=O)N[C@@H](C)C(=O)N(C)[C@H](Cc2c[nH]c3ccccc23)C(=O)N[C@H]1c1ccc(O)cc1 [chon A_np (2a), chondramide A] | 118 ± 23 nM | 56 ± 13 nM | – | –
2 | CO[C@@H]1C(=O)O[C@H](C)[C@@H](C)C=C(C)C[C@H](C)C(=O)N[C@@H](C)C(=O)N(C)[C@H](Cc2c(Cl)[nH]c3ccccc23)C(=O)NC1c1ccc(O)cc1 (stereo partly drawn) [chon B_np (3), chondramide B] | 44 ± 5 nM | – | – | –
3 | C/C1=C\[C@@H](C)[C@@H](C)OC(=O)C[C@H](c2ccc(O)cc2)NC(=O)[C@@H](Cc2c[nH]c3ccccc23)N(C)C(=O)[C@H](C)NC(=O)[C@@H](C)C1 [chon C_np (4), chondramide C] | 36 ± 7 nM | – | – | –
4 | C/C1=C\[C@H](C)C[C@H](C)OC(=O)C[C@H](c2ccc(O)cc2)NC(=O)[C@@H](Cc2c(Br)[nH]c3ccccc23)N(C)C(=O)[C@H](C)NC(=O)[C@@H](C)C1 [jasplakinolide_np (1), jasplakinolide] | – | – | 28 ± 4 nM | ~30 nM
